According to paper PMC12481569, “Novltex: A New Class of Antibiotics with Potent Activity against Multidrug-Resistant Bacterial Pathogens–Design, Synthesis, and Biological Evaluation” (Journal of Medicinal Chemistry, 2025):
Values after ≈ are worked out from the molar mass of the structure shown. Read-outs that look alike come from different tables or passages of the source. Positions of bridges follow the written chain, without caps; N, C: chain ends. Non-standard residues stand in square brackets, D forms with d. Residues, ends and D or L forms follow the SMILES beside them. d(aIle) = CC[C@H](C)[C@@H](N)C(=O)O

Tests used:
[1] = Lipid II binding, spot-on-lawn assays on S. aureus ATCC 33591; design: species or system Staphylococcus aureus; conditions: lipid II (300 μM, 2 μL) at the edge of the antibiotic halo, overnight 37 °C, duplicates
Excerpt: 6 Spot-on-lawn assays to evaluate binding of Lipid II with analogue 12 on S. aureus ATCC 33591. (A) Analogue 12 was premixed with increasing ratios of lipid II (0.5 to 4 equiv) and spotted onto a seeded lawn of S. aureus 33591. Lipid II and analogue 12 were also spotted independently. The position of the analogue 12–lipid II mixture is marked in red. (B) Daptomycin was used as a negative control. Asterisks denote the positions of analogue 12 (black), lipid II (blue), and daptomycin (green) additions.
Analogue 12 was premixed with increasing ratios of lipid II (0.5 to 4 equiv) for 10 min prior to spotting onto agar plates seeded with a lawn of S. aureus ATCC 33591 and incubated overnight.
XII. Lipid II binding determination of analogue 12
Previously reported methods were used to determine the lipid II binding of analogue 126,7. The lipid II used in this study was prepared by chemical synthesis and its preparation and purification has been […]
A: An overnight culture of S. aureus ATCC 33591 was added to LB agar (45 °C) at a final concentration of 0.1% (vol/vol) and pour-plated into 90 mm petri dishes. Binding of 12 to purified lipid II was assessed using a spot-on-lawn assay. Premixed solutions (5 µL) containing analogue 12 (8 µg) with varying concentration of lipid II were spotted onto the agar, alongside individual controls of 12 and lipid II.
After drying, plates were incubated overnight at 37 °C. This assay was performed in duplicates.
B: To assess the interaction between analogue 12 and lipid II, a culture of S. aureus ATCC 33591 was grown overnight in LB broth and inoculated into LB agar at a final concentration of 1% (v/v) at 45°C.
This mixture was evenly distributed into 90mm petri dishes. Antibiotic inhibition haloes were previously determined by spotting analogue 12 and daptomycin (5 μL,8 µg/mL) onto agar plates and measuring the diameter of the halo after overnight incubation at 37 °C . The binding affinity of analogue 12 and lipid II was later examined by applying purified lipid II (300 μM, 2 μL) to the edge of the antibiotic halo. Analogue 12 and Daptomycin were applied to the inoculated agar plate at a spaced distance, once the antimicrobial solution drops had dried, lipid II was spotted on the edge of the inhibition halo. The plates were then incubated overnight at 37 °C. […]

[2] = system: Multidrug-Resistant (MDR) E. faecium; test: microbe, parasite or virus in culture; conditions: 24 h; for MIC: Enterococcus faecium
Method: (§1) We further evaluated analogue 12 against multidrug-resistant (MDR) strains of S. aureus (acquired from the NARSA collection) and MDR E. faecium (acquired from International Health Management Associates, IHMA, Europe Sarl), comparing its activity to various classes of clinically used antibiotics (Table ).
(§2) MICs were performed as previously reported 4. For MIC testing all peptides were dissolved in DMSO.
(§3) Bacterial cultures were grown overnight on Mueller-Hinton Agar (MHA) plates and adjusted to a final inoculum of 10^5 – 10^6 CFU/mL. 100 µl of ino culum in Meuller -Hinton broth (MHB) was mixed with equal volume of peptides (dissolved in MHB) at 2x their concentration in a 96 well plate . For daptomycin MIC determination, the same protocol was followed with the addition of 50 mg/L calcium chloride to the medium. MIC values were determined in the media contain ing polysorbate 80 (0.002%, v/v) to prevent non -specific adsorption of the peptides to plastic surfaces. The final peptides concentrations ranged from 0.0625 – 32 µg/mL. The 96 well plates were then incubated at 37 °C for 24 h. All the experiments were performed in two independent duplicates and the MIC was determined as the lowest concentration in which no visible growth was observed.
(§4) Antibiotics MIC break points ( µg/mL)
(§5) Table. S4: Susceptibility cut-off values (MIC breakpoints) for various clinical antibiotics. […]

[3] = system: Multidrug-Resistant (MDR) S. aureus; test: microbe, parasite or virus in culture; conditions: 24 h; for MIC: Staphylococcus aureus
Method: as §1, §2, §3, §4, §5

MRSA ATCC 33591 [4] = test: Time-kill kinetics; type: cell-based, Staphylococcus aureus; conditions: 5 μg/mL, MHB with 0.002% polysorbate 80, 37 °C, two independent experiments in duplicate
Method: Early-stage time-kill kinetics for analogue 12 against MRSA ATCC 33591 were performed using vancomycin as a control, following the protocol described in Section VIII, Supporting Information.
3 Time-kill kinetics of Novltex analogue 12 and clinical antibiotic (vancomycin) against MRSA 33591. […] Results are the mean ± SD of two independent experiments performed in duplicate.
as §2, §3, §4
Table. […]

MRSA ATCC 33591 [5] = test: microbe, parasite or virus in culture; type: cell-based, Staphylococcus aureus
Method: as §2
as §3, with “observed. […]” for “observed.”

With `CCCCCCCCCC(=O)N[C@@H](Cc1c[nH]c2ccccc12)C(=O)N[C@H](CC(N)=O)C(=O)N[C@@H](CC(=O)O)C(=O)N[C@@H]1C(=O)NCC(=O)N[C@@H](CCCN)C(=O)N[C@@H](CC(=O)O)C(=O)N[C@H](C)C(=O)N[C@@H](CC(=O)O)C(=O)NCC(=O)N[C@H](CO)C(=O)N[C@@H]([C@H](C)CC(=O)O)C(=O)N[C@@H](CC(=O)c2ccccc2N)C(=O)O[C@@H]1C` [Daptomycin] the “halo distortion on addition of lipid II” value [1] was “maintained a distinct circular inhibition zone”, the “MIC, Enterococcus faecium 1563254” value ([2]; MDR clinical isolate 1563254, MHB, 0.002% polysorbate 80, 37 °C, daptomycin with 50 mg/L calcium chloride) was greater than 32 µg/mL and the “MIC, Enterococcus faecium 1581582” value ([2]; MDR clinical isolate 1581582, MHB, 0.002% polysorbate 80, 37 °C, daptomycin with 50 mg/L calcium chloride) was greater than 32 µg/mL. The “MIC, Enterococcus faecium 1766686” value ([2]; MDR clinical isolate 1766686, MHB, 0.002% polysorbate 80, 37 °C, daptomycin with 50 mg/L calcium chloride) was greater than 32 µg/mL, the “MIC, Staphylococcus aureus NR 45914” value ([3]; MDR strain NR 45914, MHB, 0.002% polysorbate 80, 37 °C, daptomycin with 50 mg/L calcium chloride) was 2 µg/mL (≈ 1.23 µM) and the “MIC, Staphylococcus aureus NR 45926” value ([3]; MDR strain NR 45926, MHB, 0.002% polysorbate 80, 37 °C, daptomycin with 50 mg/L calcium chloride) was 4 µg/mL (≈ 2.47 µM). The “MIC, Staphylococcus aureus NR 45930” value ([3]; MDR strain NR 45930, MHB, 0.002% polysorbate 80, 37 °C, daptomycin with 50 mg/L calcium chloride) was 2 µg/mL (≈ 1.23 µM) and the “MIC, Staphylococcus aureus NR 46062” value ([3]; MDR strain NR 46062, MHB, 0.002% polysorbate 80, 37 °C, daptomycin with 50 mg/L calcium chloride) was 2 µg/mL (≈ 1.23 µM).

For `CN[C@H](CC(C)C)C(=O)N[C@H]1C(=O)N[C@@H](CC(N)=O)C(=O)N[C@H]2C(=O)N[C@H]3C(=O)N[C@H](C(=O)N[C@H](C(=O)O)c4cc(O)cc(O)c4-c4cc3ccc4O)[C@H](O)c3ccc(c(Cl)c3)Oc3cc2cc(c3O[C@@H]2O[C@H](CO)[C@@H](O)[C@H](O)[C@H]2O[C@H]2C[C@](C)(N)[C@H](O)[C@H](C)O2)Oc2ccc(cc2Cl)[C@H]1O` [Vancomycin], the “time to similar bacterial killing” value (MRSA ATCC 33591 [4]) was 24 h, the MIC (MRSA ATCC 33591 [5]; Staphylococcus aureus, 24 h, read-out: MIC against MRSA ATCC 33591) was 0.5 to 1 µg/mL (≈ 0.345 to 0.69 µM) and the MIC ([2]; read-out: MIC, Enterococcus faecium 1563254) was greater than 32 µg/mL. For the same compound, the MIC ([2]; read-out: MIC, Enterococcus faecium 1581582) was greater than 32 µg/mL, the MIC ([2]; read-out: MIC, Enterococcus faecium 1766686) was greater than 32 µg/mL and the MIC ([3]; read-out: MIC, Staphylococcus aureus NR 45914) was 1 µg/mL (≈ 0.69 µM). The MIC ([3]; read-out: MIC, Staphylococcus aureus NR 45926) was 0.5 µg/mL (≈ 0.345 µM), the MIC ([3]; read-out: MIC, Staphylococcus aureus NR 45930) was 1 µg/mL (≈ 0.69 µM) and the MIC ([3]; read-out: MIC, Staphylococcus aureus NR 46062) was 2 µg/mL (≈ 1.38 µM).

For `CC[C@H](C)[C@@H](NC(=O)[C@@H](N)Cc1ccccc1)C(=O)N[C@H](CCCCN)C(=O)N[C@@H](CO)C(=O)N[C@H]1C(=O)N[C@@H](C)C(=O)N[C@@H](CC(C)C)C(=O)N[C@@H](CC(C)C)C(=O)O[C@H]1C` [analogue 16, Leu2 D-allo-Ile–Novltex] (H-F[d(aIle)][dK]S[dT]ALL; ester 5-C), the “fold decrease in antibacterial activity (MIC) compared to analogue 12” value (MRSA ATCC 33591 [5]; MRSA ATCC 33591) was 64 fold and the “MIC against MRSA ATCC 33591” value (MRSA ATCC 33591 [5]; Table 2, MHB with 0.002% polysorbate 80, 37 °C, 24 h, two independent duplicates) was 16 µg/mL (≈ 18.3 µM).
